{
  "source": "patent US20160213739A1",
  "about": "“TREATMENTS FOR DISORDERS USING GUANYLATE CYCLASE C AGONISTS” (Ironwood Pharmaceuticals, Inc., priority 2011, published 2016)",
  "key": {"[1]": {"assay": "In vitro metabolism in mouse jejunum loop fluid", "type": "in vitro ADME", "conditions": "37° C.; for metabolism in the control reaction: control reaction (1 M Tris-HCl), 120 minute incubation", "description": "The purpose of this study was to determine the stability of phosphorylated peptides in mouse jejunal loop fluid. […] The isotopically labeled peptide 2 was synthesized with ^13C, ^15N-labeled alanine and leucine (i.e., with a sequence CCpS[^13C6, ^15N]LCCNP[^13C6, ^15N]ACTGC).\nEach peptide was synthesized by American Peptide Company, Inc., and was stored desiccated at −20° C. A 1 mg/mL solution for each of the non-labeled peptides was prepared in 1 M tris (hydroxymethyl) aminomethane hydrochloride (Tris-HCl), pH 8 just prior to conducting the mouse intestinal loop fluid assay. A 500 ng/mL solution of ^13C, ^15N-labeled peptide 2 was prepared in 0.1% formic acid in water and was utilized to dilute the jejunum samples for post-assay LC-MS/MS analysis.\nTo collect the fluid, mice were fasted overnight with full access to water. They were then anesthetized with isofluorane for surgery and subjected to laparotomy in which the small intestine was exteriorized. Jejunum loops of 3 to 4 cm in length were made with sutures starting at 7 cm from the pyloric sphincter of the stomach. Once the loops were formed, they were injected with 200 μL of phosphate buffered saline (PBS) buffer (10 mM, pH 7.4). The abdominal wall and skin of the animals were then sutured, and the animals were allowed to recover for 30 minutes. Following recovery, the animals were sacrificed, the loops were then excised and the fluid inside was recovered and stored at −80° C. until use.\nFor each peptide, 254 of the 1 mg/mL peptide stock solution was added to 25 of 1 M Tris-HCl and 25 μL of 10× calf intestinal phosphatase (CIP) buffer containing 500 mM Tris-HCl, 1 M sodium chloride (NaCl), […] (MgCl2), pH 8. The reactions were initiated by adding 175 pit of the mouse jejunum loop fluid or 175 μL of the 1 M Tris-HCl pH8 buffer for the control reactions. The final concentration of each peptide was 100 μg/mL. The reactions were continuously mixed and maintained at 37° C. on a plate shaker. At 0, 2, 5, 10, 20, 30, 60, 90 and 120 minutes after adding the mouse intestinal loop fluid, a 25 μL aliquot was taken and added to 25 μL of 4° C. 12% trichloroacetic acid to stop the reaction. An additional 200 μL of 0.1% formic acid in water was added to these reactions for dilution purposes. These samples were then further diluted by taking 20 μL of each sample and adding it to 480 μL of 0.1% formic acid in water containing 500 ng/mL of the internal standard ^13C, ^15N-labeled peptide 2.\nAll samples were analyzed using an Applied Biosystems/MDS SCIEX API 4000 triple quadrupole mass spectrometer equipped with a high-performance liquid chromatography (HPLC) system. The mass spectrometer was operated in multiple reaction monitoring (MRM) mode, with resolution set to 1.2 Da.\nThe LC-MS/MS data were processed using Analyst version 1.4.2 software (Applied Biosystems/MDS SCIEX). The peak area ratio (ratio of analyte peak area to internal standard peak area) was used to calculate the percent remaining of each peptide."}, "[2]": {"target": "T1, Calf intestinal alkaline phosphatase (CIP) (Bos taurus, UniProt P19111)", "T1 construct": "purchased New England BioLabs M0290S", "T1 sequence (P19111 20-506)": "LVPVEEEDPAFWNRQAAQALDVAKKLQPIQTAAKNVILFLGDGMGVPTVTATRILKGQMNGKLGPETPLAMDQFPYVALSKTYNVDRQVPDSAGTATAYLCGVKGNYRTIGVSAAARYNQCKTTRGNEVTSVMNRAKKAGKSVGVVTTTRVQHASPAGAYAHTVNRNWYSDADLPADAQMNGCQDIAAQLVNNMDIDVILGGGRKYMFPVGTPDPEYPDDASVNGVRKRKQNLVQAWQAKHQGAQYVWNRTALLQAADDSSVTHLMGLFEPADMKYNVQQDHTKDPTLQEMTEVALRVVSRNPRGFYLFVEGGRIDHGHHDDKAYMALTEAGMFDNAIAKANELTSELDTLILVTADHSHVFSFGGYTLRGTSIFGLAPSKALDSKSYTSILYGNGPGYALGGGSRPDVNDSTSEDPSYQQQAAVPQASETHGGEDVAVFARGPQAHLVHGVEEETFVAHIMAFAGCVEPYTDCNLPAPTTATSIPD", "assay": "Alkaline phosphatase reaction on peptide substrates", "type": "in vitro ADME", "conditions": "for Dephospho (%) / Remaining (%): Alkaline phosphatase pH 8, 90 minutes at 37° C.", "description": "(§1) For the alkaline phosphatase reactions, peptide stocks were prepared at 1 mg/mL in 0.1 M Tris-HCl pH 8, which were stored at −20° C. until assays were conducted. For the acid phosphatase reactions, peptide stocks were prepared at 1 mg/mL in 50 mM sodium phosphate pH 6, which was stored at −20° C. until assays were conducted.\nCalf intestinal alkaline phosphatase (CIP) was obtained from New England BioLabs, Ipswich, Mass. Cat # M0290S. The CIP reaction solution was prepared by dilution with buffer (50 mM KCl, 10 mM Tris-HCl pH 8, 1 mM MgCl2, 50% glycerol) to 0.5 units/4. The alkaline phosphatase reaction solutions were assembled in 20 μL quantities containing:\n2 μL 10×CIP buffer (1M NaCl, 500 mM Tris-HCl pH 8, 100 mM MgCl2)\n2 μL peptide stock (1 mg/mL)\n4 μL alkaline phosphatase (0, 0.5 or 2 units)\nThe reaction solutions were mixed gently and incubated for 90 minutes at 37° C. These reaction solutions were stored at −20° C. until analysis. For analysis, the reaction solutions were diluted from 7.5 μL of CIP treated peptide to 50 μL with 0.1% formic acid in water to a final concentration of 10 μM.\nControl reactions were assembled for enzyme activity containing 10 mM p-nitrophenylphosphate in place of peptide. After incubation, the reactions were diluted with 0.1 mL of 100 mM borate buffer pH 9 and read at the absorbance of 405 nm to monitor p-nitrophenol appearance."}, "[3]": {"target": "T2, human prostate acid phosphatase (HuPrAP) (Homo sapiens, UniProt P15309)", "T2 construct": "purchased MP Biochemicals 153872", "T2 sequence (P15309 33-386)": "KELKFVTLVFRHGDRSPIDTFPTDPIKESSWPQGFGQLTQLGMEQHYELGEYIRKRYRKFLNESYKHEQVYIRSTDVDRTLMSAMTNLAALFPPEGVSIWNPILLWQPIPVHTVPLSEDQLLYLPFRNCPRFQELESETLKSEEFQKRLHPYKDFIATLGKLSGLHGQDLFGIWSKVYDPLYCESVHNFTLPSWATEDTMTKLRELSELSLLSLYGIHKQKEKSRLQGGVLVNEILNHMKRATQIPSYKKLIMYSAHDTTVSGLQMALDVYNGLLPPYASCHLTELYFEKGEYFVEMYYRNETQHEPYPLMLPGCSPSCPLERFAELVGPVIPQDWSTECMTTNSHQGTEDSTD", "assay": "Acid phosphatase reaction, human prostate acid phosphatase", "type": "in vitro ADME", "conditions": "Human prostatic acid phosphatase pH 5, 90 minutes at 37° C.", "description": "as §1\n(§2) Potato acid phosphatase (PoAP) was obtained from Sigma, St. Louis, Miss. Cat #P1146 and human prostate acid phosphatase (HuPrAP) was obtained from MP Biochemicals, Solon, Ohio. Cat #153872. The acid phosphatases were dissolved to provide a solution containing 0.5 units AP/4 using 50 mM sodium acetate pH 5, 0.2 mM MgCl2. The acid phosphatase reactions were assembled in 20 μL quantities containing: • 2 μL 10× acid phosphatase buffer (500 mM sodium acetate pH 5, 2 mM MgCl2) • 2 μL peptide stock (1 mg/mL) • 12 μL H2O • 4 μL acid phosphatase (0.5 or 2 units)\n(§3) The reaction solutions were mixed gently and incubated for 90 minutes at 37° C. The reaction solutions were stored at −20° C. for later analysis. For analysis, 7.5 μL acid phosphatase reactions were diluted to 50 μL with 0.1% formic acid in water to a final concentration of 10 μM. The control reactions for enzyme activity were assembled and diluted to 10 mM p-nitrophenylphosphate in place of peptide. After incubation, the reactions were diluted with 0.1 mL of 100 mM borate buffer pH 9 and read at the absorbance of 405 nm to monitor p-nitrophenol appearance."}, "[4]": {"conditions": "after oral administration at therapeutic dose levels; cited from earlier work"}, "[5]": {"tested_on": "Potato acid phosphatase (PoAP)", "assay": "Acid phosphatase reaction, potato acid phosphatase", "type": "in vitro ADME", "conditions": "Potato acid phosphatase pH 5, 90 minutes at 37° C.", "description": "as §1, §2, §3"}},
  "note": "Positions of bridges follow the written chain, without caps; N, C: chain ends. Non-standard residues stand in square brackets, D forms with d. Residues, ends and D or L forms follow the SMILES beside them. pS = N[C@@H](COP(=O)(O)O)C(=O)O",
  "data": [
    {"compound": "CC(C)C[C@@H]1NC(=O)[C@H](COP(=O)(O)O)NC(=O)[C@@H]2CSSC[C@@H]3NC(=O)[C@H](C)NC(=O)[C@@H]4CCCN4C(=O)[C@H](CC(N)=O)NC(=O)[C@H](CSSC[C@H](N)C(=O)N2)NC(=O)[C@H](CSSC[C@@H](C(=O)O)NC(=O)CNC(=O)[C@H]([C@@H](C)O)NC3=O)NC1=O", "note": "[Peptide 2, CCpSLCCNPACTGC] (H-CC[pS]LCCNPACTGC-OH; disulfide 1-6, 2-10, 5-13 (inferred); N-terminus and C-terminus assumed)", "values": [
      {"measurement": "metabolism in the control reaction", "setting": "[1]", "result": "not metabolized"},
      {"measurement": "metabolite formed", "setting": "[1]; mouse jejunum fluid, increased for the first 20 minutes then slow decrease", "result": "dephospho-peptide 2"},
      {"measurement": "Dephospho (%)", "setting": "[2]", "result": 100, "unit": "%"},
      {"measurement": "Dephospho (%)", "setting": "[3]", "result": 4.1, "unit": "%"}
    ]},
    {"compound": "CC(C)C[C@@H]1NC(=O)[C@H](CO)NC(=O)[C@@H]2CSSC[C@@H]3NC(=O)[C@H](C)NC(=O)[C@@H]4CCCN4C(=O)[C@H](CC(N)=O)NC(=O)[C@H](CSSC[C@H](N)C(=O)N2)NC(=O)[C@H](CSSC[C@@H](C(=O)O)NC(=O)CNC(=O)[C@H]([C@@H](C)O)NC3=O)NC1=O", "note": "[Dephospho-Peptide 2, CCSLCCNPACTGC] (H-CCSLCCNPACTGC-OH; disulfide 1-6, 2-10, 5-13 (inferred); N-terminus and C-terminus assumed)", "values": [
      {"measurement": "metabolism in the control reaction", "setting": "[1]", "result": "not metabolized"},
      {"measurement": "degradation in mouse intestinal fluid compared with peptide 2", "setting": "[1]", "result": "degraded faster"}
    ]},
    {"compound": "CC(C)C[C@@H]1NC(=O)[C@H](CCC(=O)O)NC(=O)[C@@H]2CSSC[C@@H]3NC(=O)[C@H](C)NC(=O)[C@@H]4CCCN4C(=O)[C@H](CC(N)=O)NC(=O)[C@H](CSSC[C@H](N)C(=O)N2)NC(=O)[C@H](CSSC[C@@H](C(=O)N[C@@H](Cc2ccc(O)cc2)C(=O)O)NC(=O)CNC(=O)[C@H]([C@@H](C)O)NC3=O)NC1=O", "note": "[Peptide 3, CCELCCNPACTGCY] (H-CCELCCNPACTGCY-OH; disulfide 1-6, 2-10, 5-13 (inferred); N-terminus and C-terminus assumed)", "values": [
      {"measurement": "metabolism in the control reaction", "setting": "[1]", "result": "not metabolized"},
      {"measurement": "degradation in mouse intestinal fluid compared with peptide 2", "setting": "[1]", "result": "degraded faster"},
      {"measurement": "peptide detected after 90 minutes", "setting": "[1]; mouse jejunum fluid, 100 μg/mL peptide", "result": "not detected"},
      {"measurement": "Effect of CIP treatment on the peptide (LC-MS)", "setting": "[2]; with and without calf intestinal alkaline phosphatase, data not shown", "result": "not affected"}
    ]},
    {"compound": "C[C@@H]1NC(=O)[C@@H]2CCCN2C(=O)[C@H](CC(N)=O)NC(=O)[C@@H]2CSSC[C@H](N)C(=O)N[C@H]3CSSC[C@H](NC1=O)C(=O)N[C@@H]([C@@H](C)O)C(=O)NCC(=O)N[C@H](C(=O)N[C@@H](Cc1ccc(O)cc1)C(=O)O)CSSC[C@H](NC(=O)[C@H](Cc1ccc(O)cc1)NC(=O)[C@H](CCC(=O)O)NC3=O)C(=O)N2", "note": "[linaclotide, Linaclotide] (H-CCEYCCNPACTGCY-OH; disulfide 1-6, 2-10, 5-13)", "values": [
      {"measurement": "levels seen systemically", "setting": "[4]", "result": "no detectable levels"}
    ]},
    {"compound": "O=[N+]([O-])c1ccc(OP(=O)(O)O)cc1", "note": "[p-nitrophenylphosphate]", "values": [
      {"measurement": "Dephospho (%)", "setting": "[5]", "result": 100, "unit": "%"},
      {"measurement": "Remaining (%)", "setting": "[5]", "result": 0, "unit": "%"},
      {"measurement": "Dephospho (%)", "setting": "[2]", "result": 100, "unit": "%"},
      {"measurement": "Remaining (%)", "setting": "[2]", "result": 0, "unit": "%"},
      {"measurement": "Dephospho (%)", "setting": "[3]", "result": 100, "unit": "%"},
      {"measurement": "Remaining (%)", "setting": "[3]", "result": 0, "unit": "%"}
    ]},
    {"compound": "CC(C)C[C@@H]1NC(=O)[C@H](COP(=O)(O)O)NC(=O)[C@@H]2CSSC[C@@H]3NC(=O)[C@H](C)NC(=O)[C@@H]4CCCN4C(=O)[C@H](CC(N)=O)NC(=O)[C@H](CSSC[C@H](N)C(=O)N2)NC(=O)[C@H](CSSC[C@@H](C(=O)N[C@@H](Cc2ccc(O)cc2)C(=O)O)NC(=O)CNC(=O)[C@H]([C@@H](C)O)NC3=O)NC1=O", "note": "[Peptide 1, CCpSLCCNPACTGCY] (H-CC[pS]LCCNPACTGCY-OH; disulfide 1-6, 2-10, 5-13 (inferred); N-terminus and C-terminus assumed)", "values": [
      {"measurement": "Dephospho (%)", "setting": "[5]", "result": 22.1, "unit": "%"},
      {"measurement": "Dephospho (%)", "setting": "[2]", "result": 100, "unit": "%"},
      {"measurement": "Remaining (%)", "setting": "[2]", "result": 0, "unit": "%"},
      {"measurement": "Dephospho (%)", "setting": "[3]", "result": 6.2, "unit": "%"}
    ]}
  ]
}
